According to ChEMBL document CHEMBL1201862, “PubChem BioAssay data set” (2004):
Calls of active or inactive are those of the source.

Tests used:
Streptococcus = test: Group A Streptococcus viability loss, dose response, counter-screen for streptokinase expression inhibitor project, luminescence, BacTiterGlo (AID 1915); assay type: functional, organism-based;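 also: potency for reduction of bacterial viability or growth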
[1] = system: Streptococcus sp. 'group A'; test: growth inhibition of control SK(-) GAS strain, dose response, counter-screen for streptokinase expression inhibitor project, luminescence, kanamycin, BacTiterGlo, confirmation (AID 1900); assay type: functional, organism-based
Streptokinase A = molecular target: T1, Streptokinase A (Streptococcus pyogenes serotype M1, UniProt P10520); test: S. pyogenes streptokinase expression inhibitors, potency, dose response, plasminogen activation absorbance, OD405 (AID 1914); assay type: functional, Streptococcus pyogenes M1 GAS;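 also: secreted streptokinase activity via plasminogen activation per viability signal from cell pellet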
T1 sequence (P10520 whole entry): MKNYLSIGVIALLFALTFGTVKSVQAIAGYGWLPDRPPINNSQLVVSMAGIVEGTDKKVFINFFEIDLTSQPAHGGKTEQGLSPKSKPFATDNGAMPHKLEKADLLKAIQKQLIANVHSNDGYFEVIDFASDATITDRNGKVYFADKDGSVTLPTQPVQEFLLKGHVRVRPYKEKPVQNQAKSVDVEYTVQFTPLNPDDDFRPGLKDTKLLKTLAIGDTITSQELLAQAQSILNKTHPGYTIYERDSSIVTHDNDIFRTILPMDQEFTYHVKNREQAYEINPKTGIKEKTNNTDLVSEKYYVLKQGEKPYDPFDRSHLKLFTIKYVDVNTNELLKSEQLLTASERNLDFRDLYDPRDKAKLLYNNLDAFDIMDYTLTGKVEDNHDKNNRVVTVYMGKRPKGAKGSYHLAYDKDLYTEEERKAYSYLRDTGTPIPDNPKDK

Cytochrome P450 1A2 = molecular target: T2, Cytochrome P450 1A2 (Homo sapiens, UniProt P05177);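 also: PubChem cytochrome P450 panel assay, CYP1A2 panel member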
T2 sequence (P05177 whole entry): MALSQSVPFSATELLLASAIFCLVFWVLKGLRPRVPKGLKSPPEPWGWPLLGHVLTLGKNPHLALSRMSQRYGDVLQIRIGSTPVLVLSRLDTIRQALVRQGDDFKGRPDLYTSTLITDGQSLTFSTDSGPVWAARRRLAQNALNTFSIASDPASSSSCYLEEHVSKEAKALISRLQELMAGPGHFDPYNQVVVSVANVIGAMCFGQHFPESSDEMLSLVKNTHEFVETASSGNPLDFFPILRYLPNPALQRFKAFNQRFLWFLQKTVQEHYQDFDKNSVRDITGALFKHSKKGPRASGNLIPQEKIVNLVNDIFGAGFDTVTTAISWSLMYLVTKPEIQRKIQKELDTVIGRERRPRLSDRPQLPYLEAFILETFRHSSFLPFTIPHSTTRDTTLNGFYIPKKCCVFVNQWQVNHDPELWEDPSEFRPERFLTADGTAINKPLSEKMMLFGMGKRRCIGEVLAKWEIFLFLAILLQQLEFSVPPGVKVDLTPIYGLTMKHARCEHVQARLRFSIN

[2] = molecular target: T3, Heat shock factor protein 1 (Mus musculus, UniProt P38532); test: inhibition of MG132-induced HSE-luciferase signal, confirmation, cell-based, NIH3T3, luminescence, dose retest (AID 2382); assay type: functional;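 also: NIH3T3 fibroblasts with HSF1-driven luciferase reporter stressed by proteasome inhibitor MG132; luminescence from HSF1-driven luciferase expression after 8 hours of MG132 stress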
T3 sequence (P38532 whole entry): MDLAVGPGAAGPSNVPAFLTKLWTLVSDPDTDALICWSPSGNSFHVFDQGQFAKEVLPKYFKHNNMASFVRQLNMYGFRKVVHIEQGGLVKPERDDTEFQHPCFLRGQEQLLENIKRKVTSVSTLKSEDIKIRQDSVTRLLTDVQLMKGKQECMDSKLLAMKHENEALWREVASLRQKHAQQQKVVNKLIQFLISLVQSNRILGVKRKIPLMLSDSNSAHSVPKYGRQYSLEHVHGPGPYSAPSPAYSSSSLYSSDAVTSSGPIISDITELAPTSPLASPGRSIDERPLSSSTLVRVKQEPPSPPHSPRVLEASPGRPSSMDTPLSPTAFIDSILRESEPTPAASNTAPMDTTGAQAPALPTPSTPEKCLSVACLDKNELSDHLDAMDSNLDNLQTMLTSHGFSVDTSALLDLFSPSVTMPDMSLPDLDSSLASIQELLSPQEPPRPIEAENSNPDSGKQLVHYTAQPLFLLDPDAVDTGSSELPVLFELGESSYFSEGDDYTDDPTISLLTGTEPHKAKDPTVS

Cytochrome P450 2C19 = Cytochrome P450 2C19 (Homo sapiens, UniProt P33261); test: Cytochrome panel assay with activity outcomes. Panel member name: p450-cyp2c19 Compounds with AC50 equal or less than 10 uM are considered active; assay type: functional
Sequence of Cytochrome P450 2C19 (P33261 whole entry): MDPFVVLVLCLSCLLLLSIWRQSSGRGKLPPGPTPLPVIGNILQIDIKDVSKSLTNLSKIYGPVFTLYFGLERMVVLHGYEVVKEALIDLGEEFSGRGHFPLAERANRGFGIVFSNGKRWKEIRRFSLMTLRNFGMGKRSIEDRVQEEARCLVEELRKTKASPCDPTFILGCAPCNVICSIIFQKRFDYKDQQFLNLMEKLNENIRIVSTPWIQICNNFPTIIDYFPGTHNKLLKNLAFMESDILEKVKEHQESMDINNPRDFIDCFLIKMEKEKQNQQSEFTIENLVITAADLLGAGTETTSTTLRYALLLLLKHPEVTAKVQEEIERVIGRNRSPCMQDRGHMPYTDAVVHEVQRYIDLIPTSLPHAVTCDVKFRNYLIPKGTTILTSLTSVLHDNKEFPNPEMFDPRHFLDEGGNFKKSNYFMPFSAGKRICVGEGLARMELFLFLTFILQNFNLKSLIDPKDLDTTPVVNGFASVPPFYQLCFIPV

[3] = inhibitors of intracellular T. cruzi replication, confirmation, NIH3T3 host cells, beta-gal luminescence (AID 2044); assay type: functional, cell-based;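 also: intracellular parasites grown in NIH/3T3 mouse fibroblasts as host cells; luminescent beta-galactosidase reporter signal from transgenic T. cruzi replicating inside host cells; inhibitors lower the luminescence signal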
[4] = cytotoxicity toward NIH3T3 fibroblasts, dose response, counter-screen, cell-based, ATP luminescence, mouse fibroblasts (AID 2010); assay type: functional;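 also: cells exposed to compound for about 90 hours before reading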

O=C(O)COc1ccc(/C=N/Nc2nc(Nc3ccccc3)nc(N3CCCCC3)n2)cc1
EC50 (Streptococcus): 16.7 µM (active) | EC50 [1]: 18.2 µM (active) | EC50 (Streptokinase A): > 150 µM (not active)

CC(C)NC(=O)N1CC2(CCN(C(=O)c3cc(C(F)(F)F)cc(C(F)(F)F)c3)CC2)C1
AC50 (Cytochrome P450 1A2): 12.6 µM (inconclusive)

O=C1CC(c2nc3ccccc3[nH]2)CN1c1ccccc1F (stereo not drawn)
EC50 [2]: > 195 µM (not active)

N#CCCn1c(=O)cnc2cnc(Oc3ccccc3)nc21
AC50 (Cytochrome P450 1A2): 15.8 µM (inconclusive)

COc1ccc(C2C(=O)N(C3CCCCCC3)CC(=O)N2Cc2ccccc2)cc1OC (stereo not drawn)
AC50 (Cytochrome P450 2C19; read-out: AC50): 39.8 µM (inconclusive)

Cc1ccccc1-n1cnc2c(sc3nc(N4CCOCC4)c4c(c32)CCCC4)c1=O
EC50 [3]: 1.8 µM (active) | EC50 [4]: > 60 µM (not active)

O=[N+]([O-])c1ccc(Sc2nccn2Cc2ccccc2)c([N+](=O)[O-])c1
EC50 [3]: 3.06 µM (active) | EC50 [4]: > 60 µM (not active)

COc1cc(/C=C2/SC(=S)N(Cc3ccccc3)C2=O)ccc1O
EC50 (Streptococcus): 7.59 µM (active) | EC50 [1]: 3.89 µM (active) | EC50 (Streptokinase A): > 150 µM (not active)

Cc1ccc(Cn2ncc3c(N4CCN(C)CC4)ncnc32)cc1
EC50 [2]: > 195 µM (not active)

CC1CCN(c2nc(-c3ccccc3)cc(C(F)(F)F)n2)CC1
EC50 (Streptococcus): 9.37 µM (active) | EC50 [1]: 3.73 µM (active) | EC50 (Streptokinase A): 9.36 µM (inconclusive)

CCN(CC)S(=O)(=O)c1ccc(N2CCN(c3cccc(OC)c3)CC2)c([N+](=O)[O-])c1
EC50 [3]: 1.3 µM (active) | EC50 [4]: > 60 µM (not active)

O=C(Cn1cnc2c(nnn2Cc2ccc(Cl)cc2)c1=O)N1CCCc2ccccc21
EC50 [2]: > 195 µM (not active)

Cc1ccccc1Nc1c(-c2ccncc2)nc2ccc(Br)cn12
EC50 [3]: 0.832 µM (active) | EC50 [4]: > 30 µM (not active)

CCCc1c(OCCCOc2ccc(OCC(=O)O)cc2)ccc(CC=O)c1O
AC50 (Cytochrome P450 1A2): 31.6 µM (inconclusive)

CN(C)/C=C/C(=O)c1ccc(-c2ccc(Cl)cc2Cl)o1
EC50 [2]: > 195 µM (not active)

CCOC(=O)c1cnc(-c2ccccc2)nc1Oc1cccc(Cl)c1
AC50 (Cytochrome P450 2C19; read-out: AC50): 3.98 µM (inconclusive)

O=[N+]([O-])c1cccc(/C=N/Nc2nc(N3CCCCC3)nc(N3CCCCC3)n2)c1
EC50 (Streptococcus): > 150 µM (not active) | EC50 [1]: 33.5 µM (active) | EC50 (Streptokinase A): 39.4 µM (active)

COc1cccc(CNC(=O)Cn2c(=O)c3cccn3c3ccccc32)c1
EC50 [2]: > 195 µM (not active)

O=c1c(-c2cc(F)cc(F)c2)nc2cnc(N3CCOCC3)nc2n1-c1ccccc1
AC50 (Cytochrome P450 1A2): 5.01 µM (inconclusive)

O=C(O)CCN1Cc2ccccc2C1=O
EC50 [2]: > 195 µM (not active)

COc1ccc(-n2c(=O)[nH]cc(C(=O)Nc3ccc4c(c3)OCCO4)c2=O)cc1
AC50 (Cytochrome P450 2C19; read-out: AC50): 10 µM (inconclusive)

COC(=O)c1cc2ccsc2n1Cc1nc(-c2ccc(Cl)cc2)oc1C
EC50 [2]: > 195 µM (not active)

Oc1ccccc1CNn1cnnc1
AC50 (Cytochrome P450 2C19; read-out: AC50): 0.2 µM (inconclusive)

CC1=[N+]([O-])C2(C)CCCCC2(O)[N+]([O-])=C1C (stereo not drawn)
AC50 (Cytochrome P450 2C19; read-out: AC50): 15.8 µM (inconclusive)

Cc1ccc(CN(C(=O)c2ccco2)C2CCS(=O)(=O)C2)cc1 (stereo not drawn)
EC50 (Streptococcus): > 150 µM (not active) | EC50 [1]: > 150 µM (not active) | EC50 (Streptokinase A): > 150 µM (not active)

CC(=O)Nc1c(O)oc2ccccc2/c1=N\C(C)C
AC50 (Cytochrome P450 2C19): inconclusive

CC(C)Cn1c(=O)n(C)c(=O)c2[nH]cnc21 [ISOBUTYLMETHYLXANTHINE]
AC50 (Cytochrome P450 1A2): 20 µM (inconclusive)

CSc1nc(NCc2ccccc2)c2c3c(sc2n1)CN(C)CC3
EC50 [3]: 0.208 µM (active) | EC50 [4]: > 30 µM (not active)

Cc1ccc(CN(C(=O)Cc2cccs2)C(C(=O)NC2CCCC2)c2ccncc2)cc1 (stereo not drawn)
EC50 [3]: 2.29 µM (active) | EC50 [4]: > 60 µM (not active)

COc1ccc(/C=N/n2c(C)nc3c4ccccc4nc-3c2O)cc1CN1CCCC(C)(C)C1
EC50 (Streptococcus): > 150 µM (not active) | EC50 [1]: 10.9 µM (active) | EC50 (Streptokinase A): > 150 µM (not active)

COc1ccc(C(=O)C2CCCN(Cc3ccc(C#CCCO)cc3)C2)cc1F (stereo not drawn)
EC50 [3]: 0.475 µM (active) | EC50 [4]: > 60 µM (not active)

CNc1cc(N2CCCCCC2)ccc1[N+](=O)[O-]
AC50 (Cytochrome P450 2C19; read-out: AC50): 3.55 µM (inconclusive)

COC(=O)[C@H]1[C@H]2C[C@@H]3c4[nH]c5cc(OC)ccc5c4CCN3C[C@H]2C[C@@H](OC(=O)c2ccc(N)cc2)[C@@H]1OC
EC50 [3]: 2.04 µM (active) | EC50 [2]: > 195 µM (not active) | EC50 [4]: > 30 µM (not active)

Oc1nc(CSc2ncnc3sccc23)nc2ccccc12
EC50 (Streptococcus): 14.3 µM (active) | EC50 [1]: 0.734 µM (active) | EC50 (Streptokinase A): > 150 µM (not active)

CCn1c(=O)c(C(=O)NNC(=O)c2ccccc2)c(O)c2ccccc21
EC50 (Streptococcus): 20.9 µM (active) | EC50 [1]: 7.44 µM (active) | EC50 (Streptokinase A): > 150 µM (not active)

S=C1NCN2CCN(CC2)CNC(=S)C(=S)NCN2CCN(CC2)CNC1=S
AC50 (Cytochrome P450 1A2): 3.16 µM (inconclusive)

CN(C)c1ccc(C(=S)N2CCN(S(=O)(=O)c3ccccc3)CC2)cc1
EC50 [3]: 2.98 µM (active) | EC50 [4]: > 60 µM (not active)

COc1ccc(C(Nc2ccccn2)c2c(NC(=O)c3ccco3)sc(C)c2C)cc1 (stereo not drawn)
EC50 [3]: 1.86 µM (active) | EC50 [4]: > 60 µM (not active)

CCCN1C(=O)/C(=C\c2ccncc2)S/C1=N/c1ccccc1
EC50 [2]: > 195 µM (not active)

COc1cc(NC(=O)c2cc3cccc(OC)c3o2)cc(C(=O)Nc2cccc(C(F)(F)F)c2)c1
EC50 [2]: 3.5 µM (active)

Nn1c(=O)c2ccccc2n2c(SCc3ccccc3)nnc12
EC50 [2]: > 195 µM (not active)

Cc1ccc(S(=O)(=O)c2c(C(=O)c3ccccc3)cnc3cc4c(cc23)OCCO4)cc1
EC50 [2]: > 195 µM (not active)

COC(=O)c1cc(=O)n(C2CC2)/c(=N/C2CC2)s1
AC50 (Cytochrome P450 2C19): inconclusive

Cc1nc(-c2ccc(Cl)cc2)sc1C1(C)CC(c2ccc(Cl)cc2)=NO1 (stereo not drawn)
EC50 [2]: > 195 µM (not active)

CC(=O)N(CCCc1ccc(C(C)(C)C)cc1)CCCN(C)C
EC50 [3]: 0.65 µM (active) | EC50 [4]: > 60 µM (not active)

NC(=O)C1CCN(c2ccnc3cc(Cl)ccc23)CC1
EC50 [2]: > 195 µM (not active)

Cc1ccc(CN2CCN(Cc3cccc4c3OCO4)CC2CCO)cc1 (stereo not drawn)
EC50 [3]: 0.258 µM (active) | EC50 [4]: > 60 µM (not active)

CSc1ncc(C(=O)Nc2cccnc2)c(C(F)(F)F)n1
EC50 [2]: > 195 µM (not active)

O=C(NC(=S)Nn1cnc2c(cnn2-c2ccccc2)c1=O)c1ccc(Oc2ccccc2)cc1
EC50 (Streptococcus): > 150 µM (not active) | EC50 (Streptokinase A): > 150 µM (not active)

CN(C)CCCNc1cnnc(O)c1Cl
EC50 [3]: 0.658 µM (active) | EC50 [4]: > 30 µM (not active)

CCOC(=O)Cc1csc(NC(=O)CSc2nnc(-c3ccc(OC)cc3)n2C)n1
EC50 [3]: > 60 µM (not active) | EC50 [4]: > 60 µM (not active)

O=C(CSc1nc2cc(Cl)ccc2s1)Nc1cccc(S(=O)(=O)N2CCOCC2)c1
EC50 [2]: > 195 µM (not active)

C[C@@](N)(C(=O)O)c1cccc(CC(=O)O)c1
AC50 (Cytochrome P450 2C19; read-out: AC50): 20 µM (inconclusive) | AC50 (Cytochrome P450 1A2): 39.8 µM (inconclusive)

N#Cc1cccc(-c2nccc(NCc3cccnc3)n2)c1
AC50 (Cytochrome P450 2C19; read-out: AC50): 20 µM (inconclusive)

Cc1ccc(C)c(NC(=O)COc2coc(CN3CCc4ccccc4C3)cc2=O)c1
EC50 [2]: > 195 µM (not active)
